In ChEMBL document CHEMBL1127867, “5-Membered ring heterocyclic carboxylic acids as angiotensin II antagonists” (Bioorg Med Chem Lett, 1994):

biological target: Angiotensin II receptor (Oryctolagus cuniculus); assay: Tested in vitro for angiotensin II induced antagonistic activity in rabbit aorta, expressed as pA2

| pA2 | SMILES |
| --- | --- |
| 8.2 | CCCCN(Cc1ccc(-c2ccccc2-c2nn[nH]n2)cc1)c1scnc1C(=O)O |
| 8.8 | CCCCN(Cc1ccc(-c2ccccc2-c2nn[nH]n2)cc1)c1ncc(C(=O)O)s1 |
| 7.34 | CCCCCCN(Cc1ccc(-c2ccccc2-c2nn[nH]n2)cc1)c1ncc(C(=O)O)s1 |
| 8.6 | CCCCN(Cc1ccc(-c2ccccc2-c2nn[nH]n2)cc1)c1nnn(C)c1C(=O)O |
| 6.46 | CCCCN(Cc1ccc(-c2ccccc2-c2nn[nH]n2)cc1)c1c(C(=O)O)ncn1C |
| 7.87 | CCCN(Cc1ccc(-c2ccccc2-c2nn[nH]n2)cc1)c1ncc(C(=O)O)s1 |
| 8.36 | CCCCN(Cc1ccc(-c2ccccc2-c2nn[nH]n2)cc1)c1snnc1C(=O)O |
| 8.63 | CCCN(Cc1ccc(-c2ccccc2-c2nn[nH]n2)cc1)c1nc(C)c(C(=O)O)s1 |
| < 7 | CCCCN(Cc1ccc(-c2ccccc2-c2nn[nH]n2)cc1)c1c(C(=O)O)cnn1C |

The next lines start with the compound.

| SMILES | pA2 |
| --- | --- |
| CCCN(Cc1ccc(-c2ccccc2-c2nn[nH]n2)cc1)c1nc(C(F)(F)F)c(C(=O)O)s1 | 7.56 |
| O=C(O)c1cnc(NCc2ccc(-c3ccccc3-c3nn[nH]n3)cc2)s1 | < 6 |
| CCCN(Cc1ccc(-c2ccccc2-c2nn[nH]n2)cc1)c1nsnc1C(=O)O | 9 |
| CCCc1nc(N(CCC)Cc2ccc(-c3ccccc3-c3nn[nH]n3)cc2)sc1C(=O)O | 7.43 |
| CCCc1nc(NCc2ccc(-c3ccccc3-c3nn[nH]n3)cc2)sc1C(=O)O | < 6 |
| CCCCN(Cc1ccc(-c2ccccc2-c2nn[nH]n2)cc1)c1nnn(CCCC)c1C(=O)O | 8.86 |
| CCCN(Cc1ccc(-c2ccccc2-c2nn[nH]n2)cc1)c1nn(C)cc1C(=O)O | 7.94 |
